Columns and labels:
Format in all cases: in vivo
planthopper = experiment: Insecticidal test I; details: planthopper on rice seedling, 3 days after spraying
Procedure: A seedling of rice plant was grown in a 12 cm pot until the plant height reaches 15 cm. Ten individuals of planthopper, which had passed 3 to 5 days after emergence, were applied per one rice plant. The rice plant was trial-cultured for three repetitions. With 1 L of water, an insecticide was mixed in such an amount that the concentration of each of the compounds at the time of spraying was the amount indicated in Table 4, thereby preparing the spray liquid of insecticide. This spray liquid was sprayed on the leaf surface of the seedling of rice plant attached with planthoppers in the application amount indicated in Table 4. After air drying, the seedling of rice plant sprayed with the spray liquid was covered with a wire gauze cylinder. Three days later, the number of surviving insects was measured, and the insect killing rate (indicated as the “insect killing rate I” in Table 4) was calculated by the following equation. It means that the effect of agricultural chemical (insecticidal effect) is high as the value of the insect killing rate is high.
Insect killing rate (%)=(the number of surviving insects in non-treated area−the number of surviving insects in treated area)/the number of surviving insects in non-treated area×100

cotton aphid = experiment: Insecticidal test II; details: cotton aphid on cabbage leaf, 1 day after spraying
Procedure: A cabbage seedling was grown in a 12 cm pot until to be a ten-leaf stage. The leaf of cabbage was cut and placed in a petri dish with a diameter of 9 cm, and 15 individuals of cotton aphid were trial cultured for three repetitions. With 1 L of water, the insecticide was mixed in such an amount that the concentration of each of the compounds at the time of spraying was the amount indicated in Table 4, thereby preparing the spray liquid of insecticide. This spray liquid was sprayed to the leaf surface of the cabbage attached with cotton aphids in the application amount indicated in Table 4. After air drying, the petri dish was covered with a lid, and an oxygen permeable seal was sealed around the petri dish so as to prevent the escape of the aphid therefrom. One day later, the number of surviving insects was measured, and the insect killing rate (indicated as the “insect killing rate II” in Table 4) was calculated by the following equation. It means that the effect of agricultural chemical (insecticidal effect) is high as the value of the insect killing rate is high. Insect killing rate (%)=(the number of surviving insects in non-treated area−the number of surviving insects in treated area)/the number of surviving insects in non-treated area×100

Kanzawa spider mite = experiment: Acaricidal test; details: Kanzawa spider mite on kidney bean, 3 days after spraying
Procedure: A kidney bean was grown in a 12 cm pot until to be a 5-leaf stage. Thirty individuals of Kanzawa spider mite per one plant were implanted for three repetitions. To 1 L of water, the insecticide was mixed such that the concentration of each of the compounds at the time of spraying becomes the amount indicated in Table 4 and Table 6, thereby preparing the spray liquid of insecticide. This spray liquid was sprayed on the leaf surface of the kidney bean attached with Kanzawa spider mites in the application amount indicated in Table 4 and Table 6. After air drying, the kidney bean sprayed with the spray liquid was covered with a wire gauze cylinder. Three days later, the number of surviving mites was measured, and the mite killing rate was calculated by the following equation. It means that the effect of agricultural chemical (acaricidal effect) is high as the value of the mite killing rate is high. Mite killing rate (%)=(the number of surviving mites in non-treated area−the number of surviving mites in treated area)/the number of surviving mites in non-treated area×100

[1] = application amount 100 L/10 a, (A)+(B) concentration 1000 ppm

## Monocapric acid monoglycerine [compound 7]
planthopper; [1]
  Insect killing rate I: 46%
Cotton aphid; [1]
  Insect killing rate II: 57%
Kanzawa spider mite; [1]
  Mite killing rate: 40%

## Octyl alcohol [compound 22]
planthopper; 100 L/10 a, 2000 ppm
  Insect killing rate I: 24%
Cotton aphid; 100 L/10 a, 2000 ppm
  Insect killing rate II: 34%
Kanzawa spider mite; 100 L/10 a, 2000 ppm
  Mite killing rate: 22%
